# Measured values from patent EP4660190A1, “PHARMACEUTICALLY ACCEPTABLE SALT OF COMPOUND AND PREPARATION METHOD THEREFOR” (Jiangsu Chia Tai Fenghai Pharmaceutical Co., Ltd., priority 2023, dated 2024).
# System: rat spinal cord injury model
# Assay: Rat spinal cord injury model, pathological changes
substance,measurement,setting,value
(Z)-3-(1-hydroxybutenyl)benzofuran-2-one tromethamine salt [Example 10],cases showing a reduction in lesions,"20 mg/kg dose group, spinal cord histopathology",4 out of 6
same,pathological changes versus the model control group,low-dose group (5 mg/kg),No significant differences
